Test results published in patent US8404258B2, “External preparation for the skin” (Shiseido Company, Ltd., priority 2001, dated 2013).

Test system: healthy volunteers (bent side of the forearm)
Assay: 24 hour-occlusion patch test (Finn Chamber) of the original specimen
Type: in vivo, human
Conditions: 46 persons, 0.03 ml original specimen
Method: “Test Method Using Patch Test”
The test was conducted using a Finn Chamber (8 mm in diameter) with 24 hour-occlusion.
Test subjects were 46 male and female healthy volunteers (33 males and 13 females) whose ages range from 22 to 59 (average 42); 0.03 ml of the original specimen of alkylene polyglycol dineopentanoate was applied on the bent side of the forearm of the test subjects for 24 hours. The application site was secured with an elastic bandage; three hours after the removal of the bandage and the adhesive plaster the first evaluation (after-24-hours evaluation) was conducted according to the evaluation criteria of Table 1, and 24 hours later another evaluation (after-48-hours evaluation) was conducted with the same criteria.

Row | Equivocal ± (mild erythema), number of subjects (evaluation time 24 hrs) | Negative − (no reaction), number of subjects (evaluation time 24 hrs) | Positive + (Weakly positive: erythema), number of subjects (evaluation time 24 hrs) | Positive ++ (Moderately positive: erythema + edema), number of subjects (evaluation time 24 hrs) | Positive +++ (Strongly positive), number of subjects (evaluation time 24 hrs) | Positive ++++ (Strongest positive: large blister), number of subjects (evaluation time 24 hrs) | Positive ratio (evaluation time 24 hrs) | Equivocal ± (mild erythema), number of subjects (evaluation time 48 hrs) | Negative − (no reaction), number of subjects (evaluation time 48 hrs) | Positive + (Weakly positive: erythema), number of subjects (evaluation time 48 hrs) | Positive ++ (Moderately positive: erythema + edema), number of subjects (evaluation time 48 hrs) | Positive +++ (Strongly positive), number of subjects (evaluation time 48 hrs) | Positive ++++ (Strongest positive: large blister), number of subjects (evaluation time 48 hrs) | Positive ratio (evaluation time 48 hrs) | Compound
1 | 0 | 46 | 0 | 0 | 0 | 0 | 0% | 0 | 46 | 0 | 0 | 0 | 0 | 0% | CC(COC(=O)C(C)(C)C)OCC(C)OC(=O)C(C)(C)C (stereo not shown) [Example 2, Dipropyleneglycol dineopentanoate]
2 | 5 | 31 | 5 | 4 | 1 | 0 | 22% | 5 | 32 | 4 | 5 | 0 | 0 | 20% | CCCCCCCCC(=O)OCCCCCCC(C)C [compound 3, Isononyl nonanoate, reference compound]
3 | 0 | 46 | 0 | 0 | 0 | 0 | 0% | 0 | 46 | 0 | 0 | 0 | 0 | 0% | CC(COC(=O)C(C)(C)C)OCC(C)OCC(C)OCC(C)OC(=O)C(C)(C)C (stereo not shown) [Example 3, Tetrapropyleneglycol dineopentanoate]

More lines, now with the values behind:

Row | Compound | Equivocal ± (mild erythema), number of subjects (evaluation time 24 hrs) | Negative − (no reaction), number of subjects (evaluation time 24 hrs) | Positive + (Weakly positive: erythema), number of subjects (evaluation time 24 hrs) | Positive ++ (Moderately positive: erythema + edema), number of subjects (evaluation time 24 hrs) | Positive +++ (Strongly positive), number of subjects (evaluation time 24 hrs) | Positive ++++ (Strongest positive: large blister), number of subjects (evaluation time 24 hrs) | Positive ratio (evaluation time 24 hrs) | Equivocal ± (mild erythema), number of subjects (evaluation time 48 hrs) | Negative − (no reaction), number of subjects (evaluation time 48 hrs) | Positive + (Weakly positive: erythema), number of subjects (evaluation time 48 hrs) | Positive ++ (Moderately positive: erythema + edema), number of subjects (evaluation time 48 hrs) | Positive +++ (Strongly positive), number of subjects (evaluation time 48 hrs) | Positive ++++ (Strongest positive: large blister), number of subjects (evaluation time 48 hrs) | Positive ratio (evaluation time 48 hrs)
4 | CC(COC(=O)C(C)(C)C)OCC(C)OCC(C)OC(=O)C(C)(C)C (stereo not shown) [Example 1, Tripropyleneglycol dineopentanoate] | 0 | 46 | 0 | 0 | 0 | 0 | 0% | 0 | 46 | 0 | 0 | 0 | 0 | 0%
5 | Isocetyl oleate [compound 1, reference compound] | 3 | 39 | 2 | 2 | 0 | 0 | 8.7% | 2 | 40 | 4 | 0 | 0 | 0 | 8.7%
